Test results taken from the supplement of paper PMC10307832.

How the values were obtained:
Assay in all cases: relative viability (nuclei count vs DMSO), 5 days (fraction); higher = more cells survive
[1] = compound: O[C@H]1CC[C@H](Nc2ncc3nc(Nc4c(F)cc(F)cc4F)n([C@H]4CCOC4)c3n2)CC1 [Tanzisertib] + Nc1nc2[nH]cc(CCc3ccc(C(=O)N[C@@H](CCC(=O)O)C(=O)O)cc3)c2c(=O)[nH]1 [Pemetrexed] (partner 0.2 µM)
Procedure, shortened: (§1)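 The day after seeding in 1536-well plates, lung cancer cell lines were treated by pin tool with a single drug, or with a fixed anchor-drug dose together with five library-drug doses (not always all listed) in √10 steps. After 5 days, a combined fix-and-stain solution (final 0.05% Triton X-100, 1% formaldehyde, 1 ug/ml Hoechst) was added. Nuclei counted on 4× images gave relative viability as treated counts over vehicle counts, reported as the median of duplicate plates.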

[2] = compound: O[C@H]1CC[C@H](Nc2ncc3nc(Nc4c(F)cc(F)cc4F)n([C@H]4CCOC4)c3n2)CC1 [Tanzisertib] + CC1(C)CCC(c2ccc(Cl)cc2)=C(CN2CCN(c3ccc(C(=O)NS(=O)(=O)c4ccc(N[C@H](CCN5CCOCC5)CSc5ccccc5)c(S(=O)(=O)C(F)(F)F)c4)cc3)CC2)C1 [Navitoclax] (partner 0.5 µM)
Procedure, shortened: as §1

[3] = compound: O[C@H]1CC[C@H](Nc2ncc3nc(Nc4c(F)cc(F)cc4F)n([C@H]4CCOC4)c3n2)CC1 [Tanzisertib] + COc1cc2c(Oc3ccc(NC(=O)C4(C(=O)Nc5ccc(F)cc5)CC4)cc3F)ccnc2cc1OCCCN1CCOCC1 [Foretinib] (partner 0.25 µM)
Procedure, shortened: as §1

[4] = compound: O[C@H]1CC[C@H](Nc2ncc3nc(Nc4c(F)cc(F)cc4F)n([C@H]4CCOC4)c3n2)CC1 [Tanzisertib] + Cc1nc(Nc2ncc(C(=O)Nc3c(C)cccc3Cl)s2)cc(N2CCN(CCO)CC2)n1 [Dasatinib] (partner 0.075 µM)
Procedure, shortened: as §1

Cell Line	relative viability ([1]; first compound 0.08 µM)	relative viability ([1]; first compound 0.253 µM)	relative viability ([1]; first compound 0.8 µM)	relative viability ([1]; first compound 2.53 µM)	relative viability ([1]; first compound 8 µM)	relative viability ([2]; first compound 0.08 µM)	relative viability ([2]; first compound 0.253 µM)	relative viability ([2]; first compound 0.8 µM)	relative viability ([2]; first compound 2.53 µM)	relative viability ([2]; first compound 8 µM)	relative viability ([3]; first compound 0.08 µM)	relative viability ([3]; first compound 0.253 µM)	relative viability ([3]; first compound 0.8 µM)	relative viability ([3]; first compound 2.53 µM)	relative viability ([3]; first compound 8 µM)	relative viability ([4]; first compound 0.08 µM)	relative viability ([4]; first compound 0.253 µM)	relative viability ([4]; first compound 0.8 µM)	relative viability ([4]; first compound 2.53 µM)	relative viability ([4]; first compound 8 µM)
NCI-H1650	0.349	0.351	0.511	0.33	0.329	1.19	1.22	1.17	1.16	1.12	1.3	0.984	1.07	1.15	0.776	0.319	0.305	0.273	0.283	0.28
NCI-H1651	0.586	0.625	0.436	0.6	0.513	1.07	0.915	1.18	1.11	0.854	0.875	0.951	0.794	0.996	0.539	0.378	0.522	0.378	0.336	0.417
NCI-H1666	0.894	0.789	0.865	0.941	0.796	0.972	1.03	0.916	1.06	0.878	0.957	0.96	0.978	1.01	0.976	0.821	0.843	0.755	0.841	0.955
NCI-H1734	0.428	0.423	0.408	0.403	0.402	1.03	0.777	0.852	0.867	0.757	0.923	0.781	0.845	0.87	0.789	0.47	0.449	0.459	0.473	0.444
NCI-H1755	0.368	0.451	0.565	0.408	0.404	1.1	1.02	0.98	0.982	0.931	0.913	0.931	0.882	0.891	0.878	0.408	0.46	0.488	0.464	0.333
NCI-H1793	1.07	0.914	0.976	0.766	0.828	0.432	0.424	0.445	0.39	0.382	0.659	0.74	0.734	0.569	0.547	0.417	0.367	0.405	0.388	0.423
NCI-H1915	0.565	0.451	0.486	0.501	0.49	0.793	0.786	0.78	0.805	0.83	1.12	1.1	1.11	1.11	1.16	0.319	0.316	0.321	0.301	0.283
NCI-H1944	0.733	0.589	0.686	0.678	0.554	1.11	1.04	1.04	1.05	1.03	0.957	0.936	0.855	0.928	0.822	0.254	0.23	0.234	0.196	0.22
NCI-H1975	0.304	0.294	0.267	0.317	0.254	1.28	1.09	1.21	1.29	1.03	0.968	0.968	1.03	0.946	0.841	0.421	0.446	0.365	0.356	0.329
NCI-H1993	0.621	0.585	0.605	0.561	0.54	1.08	0.909	0.947	0.924	0.803	0.823	0.841	0.844	0.786	0.73	0.631	0.656	0.709	0.526	0.479
NCI-H2009	1.01	1.03	0.957	1.04	1.1	1.22	1.27	1.19	1.27	1.22	1.21	1.19	1.24	1.27	1.03	0.324	0.318	0.296	0.308	0.24
NCI-H2023	0.287	0.222	0.215	0.202	0.205	1.07	1.05	1.08	0.999	0.962	0.853	0.874	0.936	0.901	0.646	0.677	0.616	0.536	0.606	0.497
NCI-H2085		0.934	0.942	0.841	0.765	1.11	1.05	1.2	1.09	1.14	0.893	1.11	1.14	1.03	1.05	0.22	0.246	0.24	0.224	0.261
NCI-H2087	0.702	0.661	0.668	0.691	0.706	1.04	0.961	0.957	1.04	0.95	1.23	0.992	1.12	1.06	1.09	0.842	0.876	0.77	0.967	0.686
NCI-H2126	0.674	0.69	0.728	0.723	0.515	0.914	0.854	0.877	0.815	0.893	1.24	1.21	1.15	1.19	1.12	0.614	0.626	0.614	0.628	0.572
NCI-H2170	0.265	0.292	0.282	0.265	0.251	0.702	0.496	0.656	0.57	0.582	1.02	1.01	0.954	1.06	0.984	0.625	0.586	0.574	0.568	0.512
